Test results published in US4468383A, “Dimeric enkephalins” (The United States of America as represented by the …, priority 1982, dated 1984).

Tested on: NG108-15 cells (a neuroblastoma-glioma hybrid cell line)
Test: In vitro bioassay in NG108-15 cells stimulated by prostaglandin E1
Assay type: cell-based
Details: read-out: IC50 in NG108-15 cells stimulated by PGE1

CC(C)C[C@H](NC(=O)[C@H](Cc1ccccc1)NC(=O)CNC(=O)[C@@H](C)NC(=O)[C@@H](N)Cc1ccc(O)cc1)C(=O)NCCNC(=O)[C@H](CC(C)C)NC(=O)[C@H](Cc1ccccc1)NC(=O)CNC(=O)[C@@H](C)NC(=O)[C@@H](N)Cc1ccc(O)cc1 [DPE2]
IC50: ~0.15 nM
